{"source": "paper PMC11882969", "about": "(Nature Communications, 2025)", "key": {"CB1 (rCB1)": {"target": "CB1 (rCB1) (Rattus norvegicus, UniProt P20272)", "sequence (P20272 whole entry)": "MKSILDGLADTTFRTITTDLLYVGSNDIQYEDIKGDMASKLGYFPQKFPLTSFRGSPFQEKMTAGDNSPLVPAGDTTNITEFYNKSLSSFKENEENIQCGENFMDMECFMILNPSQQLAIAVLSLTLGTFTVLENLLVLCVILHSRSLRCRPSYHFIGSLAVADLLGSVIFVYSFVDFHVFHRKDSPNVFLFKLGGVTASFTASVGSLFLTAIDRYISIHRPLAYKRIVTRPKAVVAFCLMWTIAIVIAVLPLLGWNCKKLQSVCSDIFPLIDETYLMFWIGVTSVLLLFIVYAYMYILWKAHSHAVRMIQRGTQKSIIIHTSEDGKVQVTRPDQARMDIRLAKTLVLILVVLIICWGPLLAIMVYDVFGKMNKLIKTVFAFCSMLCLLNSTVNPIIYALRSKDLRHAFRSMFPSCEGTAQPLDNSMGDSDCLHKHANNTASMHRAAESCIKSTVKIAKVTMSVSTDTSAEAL", "experiment": "Radioligand competition binding, [3H]-CP-55,940, rat brain membranes"}, "hCB2": {"target": "hCB2 (Homo sapiens, UniProt P34972)", "sequence (P34972 whole entry)": "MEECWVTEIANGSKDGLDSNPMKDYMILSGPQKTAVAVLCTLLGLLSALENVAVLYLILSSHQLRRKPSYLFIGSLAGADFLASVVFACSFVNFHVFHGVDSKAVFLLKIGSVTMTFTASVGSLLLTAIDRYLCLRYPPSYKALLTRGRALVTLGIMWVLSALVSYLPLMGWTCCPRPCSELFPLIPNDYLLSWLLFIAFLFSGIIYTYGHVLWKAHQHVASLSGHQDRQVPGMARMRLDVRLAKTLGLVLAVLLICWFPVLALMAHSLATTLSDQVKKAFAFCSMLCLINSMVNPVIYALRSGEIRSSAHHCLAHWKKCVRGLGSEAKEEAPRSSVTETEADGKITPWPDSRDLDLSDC", "experiment": "Tango β-arrestin-2 recruitment, HTLA cells, CB2R", "type": "cell-based", "parameters": "expressed in transfected cells; host or cells: HEK293 cells stably expressing human CB2R (Laboratory of Ken Mackie)", "details": "hCB2"}, "hCB1": {"target": "hCB1 (Homo sapiens, UniProt P21554)", "sequence (P21554 whole entry)": "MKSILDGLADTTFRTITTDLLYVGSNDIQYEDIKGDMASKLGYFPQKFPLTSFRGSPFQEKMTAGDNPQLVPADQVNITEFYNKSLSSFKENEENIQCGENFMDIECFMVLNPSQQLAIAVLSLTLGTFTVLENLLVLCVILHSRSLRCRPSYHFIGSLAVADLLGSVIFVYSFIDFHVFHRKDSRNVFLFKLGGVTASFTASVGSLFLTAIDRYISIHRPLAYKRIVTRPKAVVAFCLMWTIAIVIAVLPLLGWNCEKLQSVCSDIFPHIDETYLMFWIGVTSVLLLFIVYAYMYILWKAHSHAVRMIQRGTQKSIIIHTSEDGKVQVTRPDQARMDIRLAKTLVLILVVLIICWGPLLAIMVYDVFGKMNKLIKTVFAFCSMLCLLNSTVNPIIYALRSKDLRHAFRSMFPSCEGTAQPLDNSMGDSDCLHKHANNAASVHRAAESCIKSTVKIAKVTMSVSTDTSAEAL", "experiment": "bioSensAll ebBRET signaling profiling, hCB1", "type": "cell-based", "parameters": "host or cells: HEK293SL cells, transient PEI transfection", "details": "for Gi1 hCB1 response: Gi1 biosensor; for Gi1 hCB1 / GoB hCB1: single replicate values, FigS6a; for Emax [95% CI]: normalized to CP-55,940; for EC50: read-out: EC50 [95% CI]"}}, "note": "Values joined by “and” are separate entries in the source; they are usually repeats but may differ in a detail not shown here. Identical values can stand only once. Like-named read-outs stand apart in the source and are kept apart here."}
{"compound": "COC(=O)[C@@H]1[C@@H]2CCC[C@@H]2CN1C(=O)c1cc(C)n(-c2cccc(C(F)(F)F)c2)n1", "note": "[‘6439]", "values": [{"measurement": "pKi [95% CI]", "setting": "CB1 (rCB1); rCB1", "value": "6.6 [6.4 – 6.8]"}, {"measurement": "Ki", "setting": "CB1 (rCB1); read-out: Ki [95% CI], rCB1, [3H]-CP-55,940", "value": 0.251, "unit": "µM"}, {"measurement": "Tango ß-arrestin recruitment Emax", "setting": "hCB2", "value": "14% [13 – 15]"}, {"measurement": "Tango ß-arrestin recruitment pEC50", "setting": "hCB2", "value": "6.5 [6.4 – 6.6]"}, {"measurement": "EC50", "setting": "hCB2; read-out: Tango ß-arrestin recruitment EC50", "value": 0.338, "unit": "µM"}, {"measurement": "Gi1 hCB1 response", "setting": "hCB1; Log [Compound] (M) -4.22186", "value": 151.018}, {"measurement": "Gi1 hCB1 response", "setting": "hCB1; Log [Compound] (M) -4.63927", "value": 115.678}, {"measurement": "Gi1 hCB1 response", "setting": "hCB1; Log [Compound] (M) -5.05788", "value": 127.496}, {"measurement": "Gi1 hCB1 response", "setting": "hCB1; Log [Compound] (M) -5.47381", "value": 106.412}, {"measurement": "Gi1 hCB1 response", "setting": "hCB1; Log [Compound] (M) -5.89285", "value": 85.038}, {"measurement": "Gi1 hCB1 response", "setting": "hCB1; Log [Compound] (M) -6.31878", "value": 82.8446}, {"measurement": "Gi1 hCB1 response", "setting": "hCB1; Log [Compound] (M) -6.72585", "value": 60.217}, {"measurement": "Gi1 hCB1 response", "setting": "hCB1; Log [Compound] (M) -7.14267", "value": 58.225}, {"measurement": "Gi1 hCB1 response", "setting": "hCB1; Log [Compound] (M) -7.55284", "value": 19.617}, {"measurement": "Gi1 hCB1 response", "setting": "hCB1; Log [Compound] (M) -8", "value": 16.8865}, {"measurement": "Gi1 hCB1 response", "setting": "hCB1; Log [Compound] (M) -8.22186", "value": 14.8945}, {"measurement": "Gi1 hCB1 response", "setting": "hCB1; Log [Compound] (M) -8.39794", "value": 2.361}, {"measurement": "Gi1 hCB1 response", "setting": "hCB1; Log [Compound] (M) -8.68787", "value": 6.703}, {"measurement": "Gi1 hCB1 response", "setting": "hCB1; Log [Compound] (M) -9.15521", "value": 0.8614}, {"measurement": "Gi1 hCB1 response", "setting": "hCB1; Log [Compound] (M) -9.61989", "value": -7.912}, {"measurement": "Gi1 hCB1 response", "setting": "hCB1; Log [Compound] (M) -10.0969", "value": -33.897}, {"measurement": "Gi1 hCB1 response", "setting": "hCB1; Log [Compound] (M) -10.5529", "value": -6.905}, {"measurement": "Gi1 hCB1 response", "setting": "hCB1; Log [Compound] (M) -11.0177", "value": 0.7271}, {"measurement": "Gi1 hCB1 response", "setting": "hCB1; Log [Compound] (M) -11.4949", "value": -12.7913}, {"measurement": "Gi1 hCB1 response", "setting": "hCB1; Log [Compound] (M) -11.9208", "value": -11.6498}, {"measurement": "Gi1 hCB1 response", "setting": "hCB1; Log [Compound] (M) -12.3979", "value": -8.158}, {"measurement": "Gi1 hCB1 response", "setting": "hCB1; Log [Compound] (M) -12.8861", "value": -13.8656}, {"measurement": "Gi1 hCB1 response", "setting": "hCB1; Log [Compound] (M) -13, individual replicate values", "value": "6.815 and -3.369"}, {"measurement": "Gi1 hCB1", "setting": "hCB1; Log [Compound] (M) -4.22186", "value": 102.871}, {"measurement": "GoB hCB1", "setting": "hCB1; Log [Compound] (M) -4.22186", "value": 99.959}, {"measurement": "Gi1 hCB1", "setting": "hCB1; Log [Compound] (M) -4.63927", "value": 91.1085}, {"measurement": "GoB hCB1", "setting": "hCB1; Log [Compound] (M) -4.63927", "value": 101.488}, {"measurement": "Gi1 hCB1", "setting": "hCB1; Log [Compound] (M) -5.05788", "value": 91.2935}, {"measurement": "GoB hCB1", "setting": "hCB1; Log [Compound] (M) -5.05788", "value": 96.0026}, {"measurement": "Gi1 hCB1", "setting": "hCB1; Log [Compound] (M) -5.47381", "value": 93.4364}, {"measurement": "GoB hCB1", "setting": "hCB1; Log [Compound] (M) -5.47381", "value": 100.139}, {"measurement": "Gi1 hCB1", "setting": "hCB1; Log [Compound] (M) -5.89285", "value": 89.3202}, {"measurement": "GoB hCB1", "setting": "hCB1; Log [Compound] (M) -5.89285", "value": 94.2762}, {"measurement": "Gi1 hCB1", "setting": "hCB1; Log [Compound] (M) -6.31878", "value": 88.4414}, {"measurement": "GoB hCB1", "setting": "hCB1; Log [Compound] (M) -6.31878", "value": 89.4207}, {"measurement": "Gi1 hCB1", "setting": "hCB1; Log [Compound] (M) -6.72585", "value": 73.3178}, {"measurement": "GoB hCB1", "setting": "hCB1; Log [Compound] (M) -6.72585", "value": 75.088}, {"measurement": "Gi1 hCB1", "setting": "hCB1; Log [Compound] (M) -7.14267", "value": 49.9}, {"measurement": "GoB hCB1", "setting": "hCB1; Log [Compound] (M) -7.14267", "value": 54.2273}, {"measurement": "Gi1 hCB1", "setting": "hCB1; Log [Compound] (M) -7.55284", "value": 26.2355}, {"measurement": "GoB hCB1", "setting": "hCB1; Log [Compound] (M) -7.55284", "value": 30.9029}, {"measurement": "Gi1 hCB1", "setting": "hCB1; Log [Compound] (M) -8", "value": 8.645}, {"measurement": "GoB hCB1", "setting": "hCB1; Log [Compound] (M) -8", "value": 13.9266}, {"measurement": "Gi1 hCB1", "setting": "hCB1; Log [Compound] (M) -8.22186", "value": 5.331}, {"measurement": "GoB hCB1", "setting": "hCB1; Log [Compound] (M) -8.22186", "value": 0.7628}, {"measurement": "Gi1 hCB1", "setting": "hCB1; Log [Compound] (M) -8.39794", "value": 4.128}, {"measurement": "GoB hCB1", "setting": "hCB1; Log [Compound] (M) -8.39794", "value": 8.262}, {"measurement": "Gi1 hCB1", "setting": "hCB1; Log [Compound] (M) -8.68787", "value": 4.853}, {"measurement": "GoB hCB1", "setting": "hCB1; Log [Compound] (M) -8.68787", "value": -0.2442}, {"measurement": "Gi1 hCB1", "setting": "hCB1; Log [Compound] (M) -9.15521", "value": 1.029}, {"measurement": "GoB hCB1", "setting": "hCB1; Log [Compound] (M) -9.15521", "value": -1.989}, {"measurement": "Gi1 hCB1", "setting": "hCB1; Log [Compound] (M) -9.61989", "value": 0.2894}, {"measurement": "GoB hCB1", "setting": "hCB1; Log [Compound] (M) -9.61989", "value": -0.46}, {"measurement": "Gi1 hCB1", "setting": "hCB1; Log [Compound] (M) -10.0969", "value": -1.6068}, {"measurement": "GoB hCB1", "setting": "hCB1; Log [Compound] (M) -10.0969", "value": -4.219}, {"measurement": "Gi1 hCB1", "setting": "hCB1; Log [Compound] (M) -10.5529", "value": 0.5669}, {"measurement": "GoB hCB1", "setting": "hCB1; Log [Compound] (M) -10.5529", "value": -0.6758}, {"measurement": "Gi1 hCB1", "setting": "hCB1; Log [Compound] (M) -11.0177", "value": -0.651}, {"measurement": "GoB hCB1", "setting": "hCB1; Log [Compound] (M) -11.0177", "value": -1.557}, {"measurement": "Gi1 hCB1", "setting": "hCB1; Log [Compound] (M) -11.4949", "value": -0.6201}, {"measurement": "GoB hCB1", "setting": "hCB1; Log [Compound] (M) -11.4949", "value": 1.626}, {"measurement": "Gi1 hCB1", "setting": "hCB1; Log [Compound] (M) -11.9208", "value": -0.3581}, {"measurement": "GoB hCB1", "setting": "hCB1; Log [Compound] (M) -11.9208", "value": -0.04642}, {"measurement": "Gi1 hCB1", "setting": "hCB1; Log [Compound] (M) -12.3979", "value": 0.9369}, {"measurement": "GoB hCB1", "setting": "hCB1; Log [Compound] (M) -12.3979", "value": 0.02551}, {"measurement": "Gi1 hCB1", "setting": "hCB1; Log [Compound] (M) -12.8861", "value": 1.631}, {"measurement": "GoB hCB1", "setting": "hCB1; Log [Compound] (M) -12.8861", "value": 1.572}, {"measurement": "Gi1 hCB1", "setting": "hCB1; Log [Compound] (M) -13", "value": "-0.9439 and 1.0911"}, {"measurement": "GoB hCB1", "setting": "hCB1; Log [Compound] (M) -13", "value": "-0.55 and -0.478"}, {"measurement": "pEC50 [95% CI]", "setting": "hCB1; hCB1 Gi1", "value": "7.2 [7.1 – 7.2]"}, {"measurement": "Emax [95% CI]", "setting": "hCB1; hCB1 Gi1", "value": "95 [93 – 96]"}, {"measurement": "pEC50 [95% CI]", "setting": "hCB1; hCB1 GoB", "value": "7.2 [7.2 – 7.3]"}, {"measurement": "Emax [95% CI]", "setting": "hCB1; hCB1 GoB", "value": "100 [99 – 101]"}, {"measurement": "pEC50 [95% CI]", "setting": "hCB1; hCB1 Gz", "value": "6.5 [5.9 – 7.0]"}, {"measurement": "Emax [95% CI]", "setting": "hCB1; hCB1 Gz", "value": "162 [125 –199]"}, {"measurement": "EC50", "setting": "hCB1; hCB1 Gi1", "value": 0.0655, "unit": "µM"}, {"measurement": "EC50", "setting": "hCB1; hCB1 GoB", "value": 0.0609, "unit": "µM"}, {"measurement": "EC50", "setting": "hCB1; hCB1 Gz", "value": 0.339, "unit": "µM"}]}
